According to US10849960B2 (priority 2017, dated 2020):

B1: IFNα: human IFN-α2a, gift of Hoffmann LaRoche (protein)
chain: MARPFAFLMVLVVISYWSTCSLGCDLPQTHNLRNKKILTLLAQMRRLSPLSCLKDRKDFGFPQEKVDAQQIQEAQAIPVLSELTQQILTLFTSKDSSAAWNATLLDSFCTGLHQLLNDLQGCLMQLVGMKELPLTQEDSQLAMKKYFHRITVYLREKKHSPCAWEVVRAEVWRALSSSVNLLARLSEEKE
modifications: Mouse
notes: human IFN-α2a, gift of Hoffmann LaRoche

Key:
Type in all cases: cell-based, human
STAT1 = experiment: Western blot for phosphorylated STAT1; conditions: OVCAR-5 and A2780 cell lines; 20 minutes
Protocol: FIGS. 6A-6B: Western blot analysis of IFN and IL4-PE STAT activation. (FIG. 6A) Western blots for phosphorylated STAT1 in OVCAR-5 and A2780 cells stimulated with IFNα2a, IFNγ, IL4-PE, or all three agents for 20 minutes at the highest concentrations from FIGS. 1A-1B (representative of three separate experiments). (FIG. 6B) Western blots for phosphorylated STAT6 in OVCAR-5 and A2780 cells stimulated with IFNα2a, IFN, IL4-PE, or all three agents for 20 minutes (representative of three separate experiments). P38 protein kinase was used as a loading control.
Cell pellets were snap-frozen and stored at −80° C. Pellets were thawed and lysed with MPER buffer supplemented with protease inhibitors. Cell lysates were centrifuged at 13,000 RPM at 4° C. for 20 minutes to clarify the lysate. The clarified lysate was removed and placed in a new vial. The protein concentration was measured using a NANODROP® Spectrophotometer (LIFE TECHNOLOGIES®, Wilmington, Del.). The lysate was mixed with reducing loading buffer (LIFE TECHNOLOGIES®, Waltham Mass.) and heated at 90° C. for 10 minutes. The samples were allowed to cool and were either used immediately or stored at 4° C. for future analysis. The samples were analyzed using 10% Bis-Tris gels and then transferred to nitrocellulose membranes per the manufacturer's directions. […]

A2780 cells = experiment: Chemical inhibition of Jak signaling, cytotoxicity assay; conditions: inhibitor 10 μM, 2 hours before
Protocol: (§1) FIGS. 7A-7D: Chemical inhibition of Jak signaling. OVCAR-5 cells (FIGS. 7A-7B) or A2780 cells (FIGS. 7C-7D) were treated with either ruxolitinib or tofacitinib for 2 hours at a final concentration of 10 μm before different concentrations of IFNs, IL4-PE or the combination of each were added. Percent viability was measured after 3 days in culture.
(§2) Cell lines were seeded at 10^4 cells/well in a 96-well plate in 100 μL of media and incubated until adherence (4 hr, 37° C., 5% CO2). Serial dilutions of IL4-PE, IFN-α2a, or IFN-γ were added and incubated for three days. IFNs were diluted using serial dilutions in cRPMI to obtain a final concentration of 200 ng/mL of both IFN-α2a or IFN-γ. For ruxolitinib and tofacitinib studies, 10 μM (final concentration) was added to the plates and incubated at 37° C. for 2 hours before IFNs or IL4-PE was added. The media was then removed, and cell viability was determined by crystal violet dye uptake in fixed, live cells. Crystal violet is a triarylmethane dye that binds to ribose type molecules such as DNA in nuclei. The dye staining is directly proportional to the cell biomass. Dye absorbance was measured at 570 nm using a spectrophotometer.

OVCAR-5 cells = experiment: as above; conditions: inhibitor 10 μM, 2 hours before, 20/4 and 200/40 ng/mL IFNs/IL4-PE, 3 days
Protocol: as §1, §2

Molecule	STAT1 phosphorylation (STAT1)	effect on IFN signaling / IFN-mediated killing (A2780 cells)	effect on IFN- and IFNs and IL4-PE-mediated cell death / IFN signaling (OVCAR-5 cells)
IFNγ: IFN-γ purchased from INTERMUNE Pharmaceutical Inc.	induced	–	–
C[C@@H]1CCN(C(=O)CC#N)C[C@@H]1N(C)c1ncnc2[nH]ccc12 [Tofacitinib, tofacitinib]	–	blocked	dose-dependent blocking of IFN signaling
B1	induced	–	–
